Experimental data reported in PubChem BioAssay AID540340 (Sanford-Burnham Center for Chemical Genomics, 2011).

Target: C-C chemokine receptor type 6 (Homo sapiens) (UniProt P51684)
Assay: CXCR5 receptor antagonists, SAR follow-up, selectivity assay for CCR6 antagonist project, cell-based, beta-arrestin, luminescence, CHO-K1 PathHunter (AID 540340)
Conditions: CCR6 beta-arrestin antagonism, AID540334

C-C chemokine receptor type 6 (Homo sapiens), sequence (P51684 whole entry, looked up): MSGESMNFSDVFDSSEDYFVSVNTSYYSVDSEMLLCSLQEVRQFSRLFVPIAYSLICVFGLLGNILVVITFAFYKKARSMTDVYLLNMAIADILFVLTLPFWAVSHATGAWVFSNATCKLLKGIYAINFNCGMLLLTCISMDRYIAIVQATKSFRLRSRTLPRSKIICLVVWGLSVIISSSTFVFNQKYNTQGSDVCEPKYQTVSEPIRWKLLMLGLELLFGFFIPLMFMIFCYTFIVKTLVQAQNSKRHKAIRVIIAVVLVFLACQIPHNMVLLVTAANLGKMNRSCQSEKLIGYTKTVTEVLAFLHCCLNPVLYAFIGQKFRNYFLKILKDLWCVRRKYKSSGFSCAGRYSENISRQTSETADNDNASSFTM

SMILES	IC50
Cn1c(O)c(C2=NNC(c3ccc(Cl)cc3)C2)c(=O)n(C)c1=O (stereo unspecified)	5.84 µM
CCCCCCCCCCCCC/C=C/[C@@H](O)[C@@H](N)CO	20.9 µM
C/C=C(\C)C(=O)OC1[C@H](OC(C)=O)C2(CO)C(CC1(C)C)C1=CCC3C4(C)CCC(O[C@@H]5O[C@H](C(=O)O)[C@@H](O[C@@H]6O[C@H](CO)[C@@H](O)[C@H](O)[C@H]6O)[C@H](O)[C@H]5O[C@H]5O[C@H](CO)[C@@H](O)[C@H](O)[C@H]5O)[C@](C)(CO)C4CCC3(C)[C@]1(C)C[C@H]2O (stereo partly specified)	7.82 µM
O=C1C2C3C=CC(CO)(O3)C2C(=O)N1c1ccccc1-c1ccccc1 (stereo unspecified)	> 66.6 µM
Cc1cccc2c1N(CCCOc1ccc(C(C)(C)C)cc1)C(=O)C2=O	> 66.6 µM
CN1CCc2nc(SCc3ccc(Cl)cc3)c(C#N)c(-c3cccs3)c2C1	> 66.6 µM
